From ChEMBL document CHEMBL5380850, “Discovery of the First Raptor (Regulatory-Associated Protein of mTOR) Inhibitor as a New Type of Antiadipogenic Agent” (J Med Chem, 2023)
pKd: −log10 of the molar value. The source made the active and inactive calls. The rule behind the calls is not given here.

Assays:
[1] = system: 3T3-L1; assay: Anti-adipogenic activity in SiRNA mediated Raptor knockdown mouse 3T3-L1 cells assessed as decrease in triglyceride level at 10 uM by Oil Red O staining based microscopic analysis; type: functional, cell-based
[2] = target: Serine/threonine-protein kinase mTOR (Mus musculus) (UniProt Q9JLN9); assay: Inhibition of mTOR signalling in mouse 3T3-L1 cells assessed as upregulation of ATG5 expression level at 0.1 to 10 uM incubated for 24 hrs by Western blot analysis; type: cell-based; details: dose 0.1-10 µM
[3] = system: Mus musculus; assay: Anti-obesity activity in high fat diet-induced obese C57BL/6J mouse model assessed as increase in PGC-1alpha expression level in liver at 40 mg/kg, ip administered every two days for 46 days by immunohistochemical analysis; type: functional, organism-based; details: time 46.0 day
[4] = system: 3T3-L1; assay: Anti-adipogenic activity against mouse 3T3-L1 cells assessed as downregulation of PPARgamma protein expression level at 0.1 to 1 uM incubated for 24 hrs by Western blot analysis; type: functional, cell-based; details: dose 0.1-1 µM
[5] = system: Mus musculus; assay: Anti-obesity activity in high fat diet-induced obese C57BL/6J mouse model assessed as increase in PGC-1alpha expression level in brown adipocyte at 40 mg/kg, ip administered every two days for 46 days by immunohistochemical analysis; type: functional, organism-based; details: time 46.0 day
[6] = target: mTORC1 (Mus musculus) (UniProt Q9JLN9); assay: Inhibition of mTORC1 formation in siRNA mediated Raptor knockdown mouse 3T3-L1 cells assessed as decrease in phosphorylated 4E-BP1 expression level at 10 uM incubated for 24 hrs by Western blot analysis; type: cell-based
[7] = system: 3T3-L1; assay: Anti-adipogenic activity against mouse 3T3-L1 cells assessed as downregulation of C/EBPdelta protein expression level at 0.1 to 1 uM incubated for 24 hrs by Western blot analysis; type: functional, cell-based; details: dose 0.1-1 µM
[8] = system: Mus musculus; assay: Anti-obesity activity in high fat diet-induced obese C57BL/6J mouse model assessed as reduction in triglyceride level at 40 mg/kg, ip administered every two days for 46 days; type: functional, organism-based; details: time 46.0 day
[9] = system: Mus musculus; assay: Anti-obesity activity in high fat diet-induced obese C57BL/6J mouse model assessed as reduction in blood glucose level at 40 mg/kg, ip administered every two days for 5 weeks pretreated with compound and followed by insulin stimulation and measured upto 120 mins by insulin tolerance test; type: functional, organism-based
[10] = system: 3T3-L1; assay: Anti-adipogenic activity in SiRNA mediated Raptor knockdown mouse 3T3-L1 cells assessed as ACC expression level at 10 uM by Western blot analysis; type: functional, cell-based
[11] = system: 3T3-L1; assay: Anti-adipogenic activity against mouse 3T3-L1 cells at lipogenesis stage assessed as decrease in triglyceride level at 1 uM and measured on 3 to 6 days by Oil Red O staining based spectroscopic analysis; type: functional, cell-based; details: time 3-6 day
[12] = system: Mus musculus; assay: Anti-obesity activity in high fat diet-induced obese C57BL/6J mouse model assessed as reduction in hepatic triglyceride level at 40 mg/kg, ip administered every two days for 46 days; type: functional, organism-based; details: time 46.0 day
[13] = system: 3T3-L1; assay: Anti-adipogenic activity against mouse 3T3-L1 cells assessed as downregulation of C/EBPbeta mRNA expression level at 0.1 to 1 uM incubated for 24 hrs by RT-qPCR analysis; type: functional, cell-based; details: dose 0.1-1 µM
[14] = system: 3T3-L1; assay: Anti-adipogenic activity against mouse 3T3-L1 cells assessed as downregulation of C/EBPdelta mRNA expression level at 0.1 to 1 uM incubated for 24 hrs by RT-qPCR analysis; type: functional, cell-based; details: dose 0.1-1 µM
[15] = target: mTORC1 (Mus musculus) (UniProt Q9JLN9); assay: Inhibition of mTORC1 formation in mouse 3T3-L1 cells assessed as decrease in Raptor/mLST8 interaction at 10 uM incubated for 24 hrs by reciprocal co-immunoprecipitation assay; type: cell-based
[16] = target: mTORC1 (Mus musculus) (UniProt Q9JLN9); assay: Inhibition of mTORC1 formation in mouse 3T3-L1 cells assessed as increase in 4E-BP1 expression level at 10 uM incubated for 24 hrs by Western blot analysis; type: cell-based
[17] = system: 3T3-L1; assay: Anti-adipogenic activity in mouse 3T3-L1 cells assessed as increase in mCherry-LC3B-labeled autophagosomes at 10 uM by Immunofluorescence analysis; type: functional, cell-based
[18] = target: Serine/threonine-protein kinase mTOR (Mus musculus) (UniProt Q9JLN9); assay: Inhibition of mTOR signalling in mouse 3T3-L1 cells assessed as downregulation of S6K1 phosphorylation at 0.1 to 10 uM incubated for 24 hrs by Western blot analysis; type: cell-based; details: dose 0.1-10 µM
[19] = target: Serine/threonine-protein kinase mTOR (Mus musculus) (UniProt Q9JLN9); assay: Inhibition of mTOR signalling in mouse 3T3-L1 cells assessed as […] of 4E-BP1 phosphorylation at 0.1 to 10 uM incubated for 24 hrs by Western blot analysis; type: cell-based; details: dose 0.1-10 µM
[20] = system: Mus musculus; assay: Anti-obesity activity in high fat diet-induced obese C57BL/6J mouse model assessed as decrease in brown adipocyte size at 40 mg/kg, ip administered every two days for 46 days by Hand E staining based microscopic analysis; type: functional, organism-based; details: time 46.0 day
[21] = system: 3T3-L1; assay: Anti-adipogenic activity against mouse 3T3-L1 cells assessed as decrease in triglyceride level at 1 uM by Oil Red O staining based spectroscopic analysis; type: functional; parameters: scale not given: the % may be the effect or the level left
[22] = target: mTORC1 (Mus musculus) (UniProt Q9JLN9); assay: Inhibition of mTORC1 formation in siRNA mediated Raptor knockdown mouse 3T3-L1 cells assessed as decrease in 4E-BP1 expression level at 10 uM incubated for 24 hrs by Western blot analysis; type: cell-based
[23] = system: 3T3-L1; assay: Anti-adipogenic activity in siRNA-mediated LC3B knockdown mouse 3T3-L1 cells assessed as decrease in triglyceride level at 10 uM by Oil Red O staining based spectroscopic analysis; type: functional, cell-based
[24] = system: Mus musculus; assay: Anti-obesity activity in high fat diet-induced obese C57BL/6J mouse model assessed as increase in […] expression level in inguen white adipose tissue at 40 mg/kg, ip administered every two days for 46 days by immunohistochemical analysis; type: functional, organism-based; details: time 46.0 day
[25] = system: 3T3-L1; assay: Anti-adipogenic activity against mouse 3T3-L1 cells assessed as downregulation of ACC protein expression level at 0.1 to 1 uM incubated for 6 days by Western blot analysis; type: functional, cell-based; details: dose 0.1-1 µM, time 6.0 day
[26] = target: Regulatory-associated protein of mTOR (Mus musculus) (UniProt Q8K4Q0); assay: Binding affinity to Raptor in mouse 3T3-L1 cells at 50 uM incubated overnight by pull-down assay
[27] = system: 3T3-L1; assay: Anti-adipogenic activity against mouse 3T3-L1 cells assessed as downregulation of ACC mRNA expression level at 0.1 to 1 uM incubated for 6 days by RT-qPCR analysis; type: functional, cell-based; details: dose 0.1-1 µM, time 6.0 day
[28] = system: Mus musculus; assay: Anti-obesity activity in high fat diet-induced obese C57BL/6J mouse model assessed as reduction in plasma ALT level at 40 mg/kg, ip administered every two days for 46 days; type: functional, organism-based; details: time 46.0 day
[29] = system: Mus musculus; assay: Anti-obesity activity in high fat diet-induced obese C57BL/6J mouse assessed as reduction in visceral fat content by measuring subcutis white adipose tissue weight at 40 mg/kg, ip administered every two days for 46 days; type: functional, organism-based; details: time 46.0 day
[30] = system: Mus musculus; assay: Anti-obesity activity in high fat diet-induced obese C57BL/6J mouse model assessed as reduction in plasma glucose level at 40 mg/kg, ip administered every two days for 14 days; type: functional, organism-based; details: time 14.0 day
[31] = target: mTORC1 (Mus musculus) (UniProt Q9JLN9); assay: Inhibition of mTORC1 formation in mouse 3T3-L1 cells assessed as decrease in Raptor/mTOR interaction at 10 uM incubated for 24 hrs by reciprocal co-immunoprecipitation assay; type: cell-based
[32] = system: Mus musculus; assay: Anti-obesity activity in high fat diet-induced obese C57BL/6J mouse model assessed as reduction in hepatic steatosis by measuring lipid deposition at 40 mg/kg, ip administered every two days for 46 days; type: functional, organism-based; details: time 46.0 day
[33] = target: Regulatory-associated protein of mTOR (Homo sapiens, UniProt Q8N122); assay: Binding affinity to recombinant human Raptor and measured for 200 sec by SPR analysis
Regulatory-associated protein of mTOR, sequence (Q8N122 whole entry): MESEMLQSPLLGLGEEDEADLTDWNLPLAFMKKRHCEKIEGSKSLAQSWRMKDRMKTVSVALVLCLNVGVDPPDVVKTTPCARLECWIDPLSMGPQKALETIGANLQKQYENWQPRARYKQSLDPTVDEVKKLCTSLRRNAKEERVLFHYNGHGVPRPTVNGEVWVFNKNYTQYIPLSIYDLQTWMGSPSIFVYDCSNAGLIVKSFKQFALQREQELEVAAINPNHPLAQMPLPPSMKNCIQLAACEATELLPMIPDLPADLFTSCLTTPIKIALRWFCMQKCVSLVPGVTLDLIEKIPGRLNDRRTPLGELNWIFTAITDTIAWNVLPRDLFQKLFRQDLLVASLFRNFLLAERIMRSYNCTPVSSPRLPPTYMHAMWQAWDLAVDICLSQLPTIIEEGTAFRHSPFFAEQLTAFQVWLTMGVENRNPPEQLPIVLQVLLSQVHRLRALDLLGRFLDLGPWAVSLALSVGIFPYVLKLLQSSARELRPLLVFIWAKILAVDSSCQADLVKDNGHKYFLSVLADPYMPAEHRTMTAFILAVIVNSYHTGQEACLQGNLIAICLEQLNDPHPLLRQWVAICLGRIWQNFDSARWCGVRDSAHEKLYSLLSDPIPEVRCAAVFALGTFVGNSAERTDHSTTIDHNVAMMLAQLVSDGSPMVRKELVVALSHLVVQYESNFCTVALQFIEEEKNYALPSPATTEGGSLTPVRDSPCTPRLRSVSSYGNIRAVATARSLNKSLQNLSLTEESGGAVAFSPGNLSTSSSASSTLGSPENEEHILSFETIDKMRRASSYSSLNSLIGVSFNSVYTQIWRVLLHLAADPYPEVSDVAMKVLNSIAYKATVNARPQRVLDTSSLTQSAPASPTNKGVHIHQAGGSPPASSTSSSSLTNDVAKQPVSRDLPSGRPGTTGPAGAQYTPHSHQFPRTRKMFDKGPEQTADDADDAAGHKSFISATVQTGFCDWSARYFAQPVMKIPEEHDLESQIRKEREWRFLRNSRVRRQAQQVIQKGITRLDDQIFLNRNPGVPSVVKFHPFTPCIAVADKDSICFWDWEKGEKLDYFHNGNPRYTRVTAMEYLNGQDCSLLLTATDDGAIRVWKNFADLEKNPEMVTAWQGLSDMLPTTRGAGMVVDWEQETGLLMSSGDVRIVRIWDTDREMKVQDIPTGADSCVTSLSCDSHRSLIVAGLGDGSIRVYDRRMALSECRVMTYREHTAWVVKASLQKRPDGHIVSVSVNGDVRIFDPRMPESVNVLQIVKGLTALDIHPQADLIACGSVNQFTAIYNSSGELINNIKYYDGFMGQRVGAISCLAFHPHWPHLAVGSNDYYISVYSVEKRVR

Regulatory-associated protein of mTOR (Mus musculus), sequence (Q8K4Q0 whole entry, looked up): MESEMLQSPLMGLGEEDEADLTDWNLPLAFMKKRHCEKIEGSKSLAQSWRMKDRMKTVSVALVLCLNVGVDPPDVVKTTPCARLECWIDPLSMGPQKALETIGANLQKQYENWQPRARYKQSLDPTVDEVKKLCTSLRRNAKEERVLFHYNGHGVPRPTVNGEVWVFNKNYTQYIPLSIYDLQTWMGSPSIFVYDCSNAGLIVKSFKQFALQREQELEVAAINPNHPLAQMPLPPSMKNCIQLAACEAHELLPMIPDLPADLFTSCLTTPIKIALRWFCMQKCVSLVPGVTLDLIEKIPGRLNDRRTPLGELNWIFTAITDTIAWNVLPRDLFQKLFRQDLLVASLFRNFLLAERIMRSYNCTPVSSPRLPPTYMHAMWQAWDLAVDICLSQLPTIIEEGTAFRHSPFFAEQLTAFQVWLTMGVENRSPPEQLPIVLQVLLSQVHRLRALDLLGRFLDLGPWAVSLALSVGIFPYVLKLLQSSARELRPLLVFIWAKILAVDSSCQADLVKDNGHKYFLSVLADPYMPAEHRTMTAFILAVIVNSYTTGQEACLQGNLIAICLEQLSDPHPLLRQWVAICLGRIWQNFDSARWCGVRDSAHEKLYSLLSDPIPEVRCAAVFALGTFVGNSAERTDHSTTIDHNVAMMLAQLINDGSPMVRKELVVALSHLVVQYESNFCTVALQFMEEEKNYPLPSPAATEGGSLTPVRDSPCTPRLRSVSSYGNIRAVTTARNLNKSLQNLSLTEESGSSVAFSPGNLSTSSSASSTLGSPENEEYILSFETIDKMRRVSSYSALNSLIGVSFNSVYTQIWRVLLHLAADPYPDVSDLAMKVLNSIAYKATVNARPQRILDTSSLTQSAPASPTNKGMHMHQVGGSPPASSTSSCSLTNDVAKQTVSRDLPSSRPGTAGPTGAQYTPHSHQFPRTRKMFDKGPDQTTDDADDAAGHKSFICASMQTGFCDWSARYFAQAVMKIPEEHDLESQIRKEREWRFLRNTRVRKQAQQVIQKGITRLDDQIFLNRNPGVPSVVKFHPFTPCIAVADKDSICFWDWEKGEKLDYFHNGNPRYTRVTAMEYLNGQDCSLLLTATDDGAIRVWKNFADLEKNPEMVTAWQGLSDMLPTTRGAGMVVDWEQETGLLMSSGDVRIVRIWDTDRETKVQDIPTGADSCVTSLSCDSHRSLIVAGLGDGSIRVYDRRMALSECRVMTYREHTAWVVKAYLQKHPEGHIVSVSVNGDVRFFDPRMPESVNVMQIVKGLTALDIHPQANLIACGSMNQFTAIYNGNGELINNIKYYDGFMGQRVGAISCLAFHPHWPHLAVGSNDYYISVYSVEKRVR

## C=C(C)[C@@]12OC3(c4ccccc4)O[C@@H]1[C@@H]1[C@H](O)[C@](Cl)(COC(=O)c4ccccc4)[C@@H](O)[C@]4(O)C(=O)C(C)=C[C@H]4[C@@]1(O3)[C@H](C)[C@H]2OC(C)=O
[1]
  Activity: Active
[2]
  inhibition: Active
[3]
  Activity: Active
[4]
  Activity: Active
[5]
  Activity: Active
[6]
  inhibition: Active
[7]
  Activity: Active
[8]
  Activity: Active
[9]
  Activity: Active
[10]
  Activity: Active
[11]
  Activity: inactive
[12]
  Activity: Active
[13]
  Activity: Active
[14]
  Activity: Active
[15]
  inhibition: inactive
[16]
  inhibition: Active
[17]
  Activity: Active
[18]
  inhibition: Active
[19]
  inhibition: Active
[20]
  Activity: Active
[21]
  Activity: >50%
[22]
  inhibition: Active
[23]
  Activity: Active
[24]
  Activity: Active
[25]
  Activity: Active
[26]
  Activity: Active
[27]
  Activity: Active
[28]
  Activity: Active
[29]
  Activity: Active
[30]
  Activity: Active
[31]
  inhibition: inactive
[32]
  Activity: Active
[33]
  pKd: 4.69
